Measured values as given in US12600717B2, “Tricyclic compounds as inhibitors of KRAS” (Incyte Corporation, priority 2021, dated 2026).

Legend:
KRAS G12D = KRAS G12D (Homo sapiens, UniProt P01116, G12D); test: GDP-GTP exchange assay (bodipy-GDP/GppNHp, SOS1), KRAS G12D; format: biochemical; conditions: bodipy-loaded KRAS G12D 2.5 nM, 4 hours pre-incubation with inhibitor, 2 hours after GppNHp/SOS1; read-out: G12D_exchange IC50
Procedure: (§1) The inhibitor potency of the exemplified compounds was determined in a fluorescence based guanine nucleotide exchange assay, which measures the exchange of bodipy-GDP (fluorescently labeled GDP) for GppNHp (Non-hydrolyzable GTP analog) to generate the active state of KRAS in the presence of SOS1 (guanine nucleotide exchange factor). Inhibitors were serially diluted in DMSO and a volume of 0.1 μL was transferred to the wells of a black low volume 384-well plate. 5 μL/well volume of bodipy-loaded KRAS G12D diluted to 2.5 nM in assay buffer (25 mM Hepes pH 7.5, 50 mM NaCl, 10 mM MgCl2 and 0.01% Brij-35) was added to the plate and pre-incubated with inhibitor for 4 hours at ambient temperature. Appropriate controls (enzyme with no inhibitor or with a G12D inhibitor) were included on the plate. The exchange was initiated by the addition of a 5 μL/well volume containing 1 mM GppNHp and 300 nM SOS1 in assay buffer. The 10 μL/well reaction concentration of the bodipy-loaded KRAS G12D, GppNHp, and SOS1 were 2.5 nM, 500 uM, and 150 nM, respectively. The reaction plates were incubated at ambient temperature for 2 hours, a time estimated for complete GDP-GTP exchange in the absence of inhibitor. For the KRAS G12V mutant, similar guanine nucleotide exchange assays were used with 2.5 nM as final concentration for the bodipy loaded KRAS proteins and 3 hours incubation after adding GppNHp-SOS1 mixture. A cyclic peptide described to selectively bind G12D mutant (Sakamoto et al., BBRC 484.3 (2017), 605-611) or internal compounds with confirmed binding were used as positive controls in the assay plates. Fluorescence intensities were measured on a PheraStar plate reader instrument (BMG Labtech) with excitation at 485 nm and emission at 520 nm.
(§2) Either GraphPad prism or Genedata Screener SmartFit was used to analyze the data. The IC50 values were derived by fitting the data to a four parameter logistic equation producing a sigmoidal dose-response curve with a variable Hill coefficient.
(§3) The symbol “†” indicates IC50≤100 nM, “††” indicates IC50>100 nM but ≤1 μM; and “†††” indicates IC50 is >1 μM but ≤5 μM, “††††” indicates IC50 is >5 μM but ≤10 μM. “NA” indicates IC50 not available.

KRAS G12V = KRAS G12V (Homo sapiens, UniProt P01116, G12V); test: GDP-GTP exchange assay (bodipy-GDP/GppNHp, SOS1), KRAS G12V; format: biochemical; conditions: bodipy-loaded KRAS G12V 2.5 nM, 3 hours incubation after adding GppNHp-SOS1; read-out: G12V_exchange IC50
Sequence of KRAS G12V (P01116 1-188 isoform P01116-2 G12V): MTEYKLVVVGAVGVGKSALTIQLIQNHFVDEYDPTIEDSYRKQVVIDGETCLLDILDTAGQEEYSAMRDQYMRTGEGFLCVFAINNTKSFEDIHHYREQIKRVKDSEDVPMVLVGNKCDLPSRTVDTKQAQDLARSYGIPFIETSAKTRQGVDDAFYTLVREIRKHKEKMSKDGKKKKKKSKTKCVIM
Procedure: as §1, §2, §3

Sequence of KRAS G12D (P01116 1-188 isoform P01116-2 G12D): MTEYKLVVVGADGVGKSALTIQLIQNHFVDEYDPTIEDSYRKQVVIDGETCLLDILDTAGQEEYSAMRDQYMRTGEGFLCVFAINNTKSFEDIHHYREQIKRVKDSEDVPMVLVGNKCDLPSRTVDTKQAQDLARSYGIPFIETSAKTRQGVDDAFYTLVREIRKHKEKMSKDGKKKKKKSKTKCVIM

| IC50 (KRAS G12D) | IC50 (KRAS G12V) | Structure (SMILES) |
| --- | --- | --- |
| 100 to 1000 nM | ≤ 100 nM | CN(C)C1CN(c2nc3c(F)c(-c4cc(O)cc5ccccc45)c(CCC#N)cc3c3c2nc(-c2ccc4[nH]ncc4c2)n3C2C3CNC2C3)C1 (single isomer, unassigned) [Example 38a] |
| 100 to 1000 nM | ≤ 100 nM | CC(=O)N1CC[C@H](n2c(=O)[nH]c3c(O[C@@H](C)[C@@H]4CCCN4C)nc4c(F)c(-c5cccc6cccc(C#N)c56)c(Cl)cc4c32)C[C@H]1CC#N [Example 45, 8-(1-((2S,4S)-1-acetyl-2-(cyanomethyl)piperidin-4-yl)-8-chloro-6-fluoro-4-((S)-1-((S)-1-methylpyrrolidin-2-yl)ethoxy)-2-oxo-2,3-dihydro-1H-imidazo[4,5-c]quinolin-7-yl)-1-naphthonitrile] |
| ≤ 100 nM | 100 to 1000 nM | CCc1nc2c(OCC34CCCN3CC(F)C4)nc3c(F)c(-c4c[nH]c5ccc(F)cc45)c(CCC#N)cc3c2n1C1C2CNC1C2 (mixture of isomers) [Example 30, 3-(1-((endo)-2-azabicyclo[2.1.1]hexan-5-yl)-2-ethyl-6-fluoro-7-(5-fluoro-1H-indol-3-yl)-4-(((2R,7aS)-2-fluorotetrahydro-1H-pyrrolizin-7a(5H)-yl)methoxy)-1H-imidazo[4,5-c]quinolin-8-yl)propanenitrile] |
| 100 to 1000 nM | 5000 to 10000 nM | CN(C)C(=O)CCc1nc2c(N3CC(N(C)C)C3)nc3c(-c4cccc(C#N)c4)c(-c4cc(O)cc5ccccc45)c(CCC#N)cc3c2n1[C@@H]1[C@@H]2CN[C@H]1C2 (relative stereo) [Example 12, 3-(1-((endo)-2-azabicyclo[2.1.1]hexan-5-yl)-8-(2-cyanoethyl)-6-(3-cyanophenyl)-4-(3-(dimethylamino)azetidin-1-yl)-7-(3-hydroxynaphthalen-1-yl)-1H-imidazo[4,5-c]quinolin-2-yl)-N,N-dimethylpropanamide] |
| ≤ 100 nM | ≤ 100 nM | C[C@H](Oc1nc2c(F)c(-c3cccc4cccc(C#N)c34)c(Cl)cc2c2c1ncn2[C@H]1CCN(C(=O)CC#N)[C@H](CC#N)C1)[C@@H]1CCCN1C [Example 40, 8-(8-chloro-1-((2S,4S)-1-(2-cyanoacetyl)-2-(cyanomethyl)piperidin-4-yl)-6-fluoro-4-((S)-1-((S)-1-methylpyrrolidin-2-yl)ethoxy)-1H-imidazo[4,5-c]quinolin-7-yl)-1-naphthonitrile] |
| ≤ 100 nM | 100 to 1000 nM | CCc1nc2c(OC[C@@]34CCCN3C[C@H](F)C4)nc3c(F)c(-c4c[nH]c5ccc(C)cc45)c(CCC#N)cc3c2n1C1C2CNC1C2 (stereo partly drawn) [Example 28, 3-(1-(2-azabicyclo[2.1.1]hexan-5-yl)-2-ethyl-6-fluoro-4-(((2R,7aS)-2-fluorotetrahydro-1H-pyrrolizin-7a(5H)-yl)methoxy)-7-(5-methyl-1H-indol-3-yl)-1H-imidazo[4,5-c]quinolin-8-yl)propanenitrile] |
| ≤ 100 nM | 100 to 1000 nM | C[C@H](Oc1nc2c(F)c(-c3cccc4cccc(C#N)c34)c(Cl)cc2c2c1ncn2[C@H]1CCN(C(=O)C2CC2)[C@H](CC#N)C1)[C@@H]1CCCN1C [Example 43, 8-(8-chloro-1-((2S,4S)-2-(cyanomethyl)-1-(cyclopropanecarbonyl)piperidin-4-yl)-6-fluoro-4-((S)-1-((S)-1-methylpyrrolidin-2-yl)ethoxy)-1H-imidazo[4,5-c]quinolin-7-yl)-1-naphthonitrile] |
| ≤ 100 nM | 100 to 1000 nM | CN(C)C(=O)CCc1nc2c(N3CC(N(C)C)C3)nc3c(F)c(-c4c(O)ccc(Cl)c4Cl)c(CCC#N)cc3c2n1C1C2CNC1C2 (stereo not shown) [Example 10, 3-(1-(2-azabicyclo[2.1.1]hexan-5-yl)-8-(2-cyanoethyl)-7-(2,3-dichloro-6-hydroxyphenyl)-4-(3-(dimethylamino)azetidin-1-yl)-6-fluoro-1H-imidazo[4,5-c]quinolin-2-yl)-N,N-dimethylpropanamide] |
| ≤ 100 nM | ≤ 100 nM | CN(C)C1CN(c2nc3c(F)c(-c4cc(O)cc5ccccc45)c(CCC#N)cc3c3c2nc(CCC(=O)N2CC4(CCOCC4)C2)n3C2C3CNC2C3)C1 (single isomer, unassigned) [Example 3a, 3-(1-((endo)-2-azabicyclo[2.1.1]hexan-5-yl)-4-(3-(dimethylamino)azetidin-1-yl)-6-fluoro-7-(3-hydroxynaphthalen-1-yl)-2-(3-oxo-3-(7-oxa-2-azaspiro[3.5]nonan-2-yl)propyl)-1H-imidazo[4,5-c]quinolin-8-yl)propanenitrile] |
| 100 to 1000 nM | 5000 to 10000 nM | CN(C)C(=O)CCc1nc2c(N3CC(N(C)C)C3)nc3c(F)c(-c4nc(N)ccc4C(F)(F)F)c(CCC#N)cc3c2n1C1C2CNC1C2 (single isomer, unassigned) [Example 32a, 3-(7-(6-amino-3-(trifluoromethyl)pyridin-2-yl)-1-endo-(2-azabicyclo[2.1.1]hexan-5-yl)-8-(2-cyanoethyl)-4-(3-(dimethylamino)azetidin-1-yl)-6-fluoro-1H-imidazo[4,5-c]quinolin-2-yl)-N,N-dimethylpropanamide] |
| ≤ 100 nM | ≤ 100 nM | CN(C)C1CN(c2nc3c(F)c(-c4cc(O)cc5ccccc45)c(CCC#N)cc3c3c2nc(CCc2ncccn2)n3C2C3CNC2C3)C1 (single isomer, unassigned) [Example 37, 3-(1-((endo)-2-azabicyclo[2.1.1]hexan-5-yl)-4-(3-(dimethylamino)azetidin-1-yl)-6-fluoro-7-(3-hydroxynaphthalen-1-yl)-2-(2-(pyrimidin-2-yl)ethyl)-1H-imidazo[4,5-c]quinolin-8-yl)propanenitrile] |
| ≤ 100 nM | 100 to 1000 nM | CCc1nc2c(-c3ncco3)nc3c(F)c(-c4cc(O)cc5ccccc45)c(CCC#N)cc3c2n1C1C2CNC1C2 (single isomer, unassigned) [Example 20a, 3-(1-((endo)-2-Azabicyclo[2.1.1]hexan-5-yl)-2-ethyl-6-fluoro-7-(3-hydroxynaphthalen-1-yl)-4-(oxazol-2-yl)-1H-imidazo[4,5-c]quinolin-8-yl)propanenitrile] |
| ≤ 100 nM | ≤ 100 nM | CN(C)C(=O)CCc1nc2c(N3CC(N(C)C)C3)nc3c(F)c(-c4cc(O)cc5ccccc45)c(Cn4cccn4)cc3c2n1[C@@H]1[C@@H]2CN[C@H]1C2 (relative stereo) [Example 9, 3-(8-((1H-pyrazol-1-yl)methyl)-1-((endo)-2-azabicyclo[2.1.1]hexan-5-yl)-4-(3-(dimethylamino)azetidin-1-yl)-6-fluoro-7-(3-hydroxynaphthalen-1-yl)-1H-imidazo[4,5-c]quinolin-2-yl)-N,N-dimethylpropanamide] |
| 100 to 1000 nM | 5000 to 10000 nM | CN(C)C(=O)CCc1nc2c(N3CC(N(C)C)C3)nc3c(OCc4ccccc4)c(-c4cccc5ccc(F)cc45)c(CCC#N)cc3c2n1[C@@H]1[C@@H]2CN[C@H]1C2 (relative stereo) [Example 14, 3-(6-(benzyloxy)-1-((endo)-2-azabicyclo[2.1.1]hexan-5-yl)-8-(2-cyanoethyl)-4-(3-(dimethylamino)azetidin-1-yl)-7-(7-fluoronaphthalen-1-yl)-1H-imidazo[4,5-c]quinolin-2-yl)-N,N-dimethylpropanamide] |
| ≤ 100 nM | ≤ 100 nM | CCc1nc2c(C)nc3c(F)c(-c4cc(O)cc5ccccc45)c(CCC#N)cc3c2n1C1C2CNC1C2 (single isomer, unassigned) [Example 23a, 3-(1-((endo)-2-Azabicyclo[2.1.1]hexan-5-yl)-2-ethyl-6-fluoro-7-(3-hydroxynaphthalen-1-yl)-4-methyl-1H-imidazo[4,5-c]quinolin-8-yl)propanenitrile] |
| 100 to 1000 nM | – | CC(=O)N1CCCC(c2nc3c(N4CC(N(C)C)C4)nc4c(F)c(-c5cc(O)cc6ccccc56)c(C)cc4c3n2C2C3CNC2C3)C1 (single isomer, unassigned) [Example 1a, 1-(3-(1-((endo)-2-azabicyclo[2.1.1]hexan-5-yl)-4-(3-(dimethylamino)azetidin-1-yl)-6-fluoro-7-(3-hydroxynaphthalen-1-yl)-8-methyl-1H-imidazo[4,5-c]quinolin-2-yl)piperidin-1-yl)ethan-1-one] |
